Patent publication US20070202512A1, “Human single nucleotide polymorphisms associated with dose-dependent weight gain and methods of use thereof” (Bristol-Myers Squibb Company, priority 2005, published 2007)

Tests used:
[1] = tested on: glycosylated hemoglobin (HbA1C); test: Phase II clinical trial CV168-006: glycosylated hemoglobin (HbA1C) by GRL SNP1 (Asn363Ser) genotype; type: in vivo, human; settings: patients treated with 20 mg in CV168-006; data up to 24 weeks
Description: (§1) Genomic DNA samples from patients enrolled in two Bristol-Myers Squibb Company Phase II clinical trial CV168-006 were genotyped for 1 SNP identified in the human GRL gene (see Example 7) and evaluated for association with weight gain.
(§2) 498 subjects enrolled in the CV168-006 trial were analyzed in this study. All analyses were based on data collected up to 24 weeks, which was the duration of the short-term phase of the trials. DNA was extracted from frozen blood by a third-party (Genaissance Inc, North Carolina) using a salting-out method (Gentra Systems). All subjects gave written informed consent.
(§3) The influence on SNP1 on weight gain and the probability of achieving lower levels of glycosylated hemoglobin (HbA1C) was assessed using ANOVA (GRL; P=0.005; P=0.007; respectively).
(§4) Genotyping was performed using the 5′ nuclease assay, essentially as described (Ranade K et al., Genome Research 11: 1262-1268 (2001); which is hereby incorporated by reference herein in its entirety), with the following modifications: six nanograms of genomic DNA were used in a 8 ul reaction. All PCR reactions were performed in an ABI 9700 machine and fluorescence was measured using an ABI 7900 machine. […]
(§5) Statistical Analyses. The influence of the SNP on weight gain and decreased glycosylated hemoglobin (HbA1C) was assessed using ANOVA. […]

[2] = Phase II clinical trial CV168-006: weight gain by PPAR-alpha SNP1 (Leu162Val) genotype; type: in vivo, human
Description: Genomic DNA samples from patients enrolled in a Bristol-Myers Squibb Company Phase II clinical trial CV168-006 trial were genotyped for 1 SNP identified in the human PPAR-alpha gene (see Example 1) and evaluated for association with weight gain.
as §2
Genotyping was performed using the 5′ nuclease assay, essentially as described (Ranade K et al., Genome Research 11: 1262-1268 (2001); which is hereby incorporated by reference herein in its entirety), with the following modifications: six nanograms of genomic DNA were used in a 8 ul reaction. All PCR reactions were performed in an ABI 9700 machine and fluorescence was measured using an ABI 7900 machine.
The association between weight gain and the single nucleotide polymorphisms of the present invention were investigated by applying statistical analysis to the results of the genotyping assays described elsewhere herein. […]
Statistical Analyses. The influence of the SNP on weight gain was assessed using ANOVA. […]

[3] = thought to be due to increased fluid retention and fat accumulation; cited from earlier work
[4] = Phase II clinical trial CV168-006: weight gain by GRL SNP1 (Asn363Ser) genotype; type: in vivo, human; settings: patients treated with 20 mg in CV168-006; data up to 24 weeks
Description: as §1, §2, §3, §4, §5

SMILES | influence of GRL SNP1 on lower levels of glycosylated hemoglobin (HbA1C), P (ANOVA) [1] | weight gain, carriers of the Valine allele vs homozygous Leucine allele (PPARα residue 162) ([2]; patients of a Phase II trial, Val carriers compared with Leu/Leu) | influence of PPAR-alpha SNP1 on weight gain, P (ANOVA) ([2]; patients treated with 20 mg in CV168-006, data up to 24 weeks) | weight gain (side effect) [3] | influence of GRL SNP1 on weight gain, P (ANOVA) [4]
COc1ccc(OC(=O)N(CC(=O)O)Cc2ccc(OCCc3nc(-c4ccccc4)oc3C)cc2)cc1 [Compound A, N-[(4-methoxyphenoxy)carbonyl]-N-[[4-[2-(5-methyl-2-phenyl-4-oxazolyl)ethoxy]phenyl]methyl]glycine] | 0.007 | gained significantly less weight | 0.039 | result in weight gain | 0.005
CCc1ccc(CCOc2ccc(CC3SC(=O)NC3=O)cc2)nc1 (stereo not shown) [pioglitazone] | – | – | – | can cause weight gain in some individuals | –
CN(CCOc1ccc(CC2SC(=O)NC2=O)cc1)c1ccccn1 (stereo not shown) [rosiglitazone] | – | – | – | can cause weight gain in some individuals | –
